Several values for one entry are separate records, joined by “and”; a condition that tells them apart may be missing. Equal entries are not always repeated.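 Five compound concentrations were applied to cells in 96-well plates for 48 hours; endpoints were derived by simple linear interpolation of the resulting dose-response curve. GI50 = concentration required for 50% inhibition of growth. TGI is the concentration that stops growth completely.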
Key:
Experiment in all cases: NCI anticancer screen, dose series, 48 h
OVCAR-4 ovarian = tested on: OVCAR-4 ovarian
CCRF-CEM leukemia = tested on: CCRF-CEM leukemia
OVCAR-3 ovarian = tested on: OVCAR-3 ovarian
LOX IMVI melanoma = tested on: LOX IMVI melanoma
MDA-MB-231 breast = tested on: MDA-MB-231 breast
HCT-15 colon = tested on: HCT-15 colon
SK-MEL-28 melanoma = tested on: SK-MEL-28 melanoma
T-47D breast = tested on: T-47D breast
EKVX NSCLC = tested on: EKVX NSCLC
MALME-3M melanoma = tested on: MALME-3M melanoma

SMILES | GI50 (OVCAR-4 ovarian) | TGI (OVCAR-4 ovarian) [µM] | GI50 (CCRF-CEM leukemia) | TGI (CCRF-CEM leukemia) | GI50 (OVCAR-3 ovarian) | TGI (OVCAR-3 ovarian) | GI50 (LOX IMVI melanoma) | TGI (LOX IMVI melanoma) [µM] | GI50 (MDA-MB-231 breast) | TGI (MDA-MB-231 breast) [µM] | GI50 (HCT-15 colon) | TGI (HCT-15 colon) [µM] | GI50 (SK-MEL-28 melanoma) | TGI (SK-MEL-28 melanoma) [µM] | GI50 (T-47D breast) | TGI (T-47D breast) | GI50 (EKVX NSCLC) | TGI (EKVX NSCLC) [µM] | GI50 (MALME-3M melanoma) | TGI (MALME-3M melanoma) [µM]
COc1ccc(/C=C(/C(=O)n2cnnn2)c2cc(OC)c(OC)c(OC)c2)cc1 | 40.5 µM | > 100 | 3.44 µM | > 100 µM | 2370 nM | 5.94 µM | 3.82 µM | > 100 | 4.7 µM | > 100 | 2.03 µM | > 100 | 7.37 µM | > 100 | > 100 µM | > 100 µM | 5.48 µM | > 100 | 7.75 µM | > 100
CC(C)(CO)N=Cc1ccccc1[O-].CC(C)(CO)N=Cc1ccccc1[O-].[Co+2] | 71.9 µM | > 100 | 5.86 µM | 68.2 µM | 36300 nM | > 100 µM | 40.5 µM | > 63.1 | > 74.9 µM | > 100 | 69.7 µM | > 100 | 58.6 µM | > 100 | 10.1 µM | > 100 µM | > 84.4 µM | > 100 | 49.5 µM | > 100
Nc1ncnc2c1c(-c1ccc(Oc3ccccc3)cc1)nn2C[C@@H]1SSC[C@@H]1O | 1.33 µM | 14 | 0.061 µM | > 59.7 µM | 277 nM | 1.04 µM | 0.169 µM | 1.11 | 1.14 µM | 4.13 | 0.57 µM | 5.98 | 0.0824 µM | 0.484 | 0.305 µM | 2.27 µM | 0.373 µM | 5.84 | 0.445 µM | 2.24
C1=C2CNCC3=Cc4ccc5ccccc5c4OC23Oc2c1ccc1ccccc21 | 4.71 µM | 19.8 | 3.65 µM | > 100 µM | 2340 nM | 5.5 µM | 2.43 µM | 7.48 | 9.34 µM | 27.2 | 3.9 µM | 22.6 | 7.38 µM |  | 8.28 µM | 23.2 µM | 5.81 µM | 34.1 | 12.5 µM | 38.5
CC[C@H](C)[C@H](NC(=O)[C@H]1CCCCN1C)C(=O)N(C)[C@H](C[C@@H](OC(C)=O)c1nc(C(=O)N[C@@H](Cc2ccccc2)C[C@H](C)C(=O)OC)cs1)C(C)C | 0.00479 µM and 0.0025 µM | > 25 | 0.000552 µM and 0.0025 µM | 2.5 µM | 0.0424 nM | 0.0116 µM | 0.000536 µM and 0.0025 µM | > 25 | 0.00102 µM and 0.0025 µM | > 25 | 0.000332 µM and 0.0025 µM |  | > 25 µM | > 25 | 11.8 µM | > 25 µM | 0.000751 µM and 0.0025 µM | > 25 | 0.442 µM | > 25
Cn1cnc([N+](=O)[O-])c1Sc1nc(N)nc2nc[nH]c12 | 4.38 µM | > 100 | 3.01 µM | > 100 µM | 4650 nM | > 100 µM | 0.488 µM | > 100 | 4.88 µM | > 100 | 5.11 µM | > 100 | > 42.5 µM | > 100 | 8.57 µM | > 100 µM | 3.9 µM | > 100 | 13 µM | > 100
O=c1oc2ccc(F)cc2c(=O)n1-c1ccc(Br)cc1F | 1.27 µM | > 42.8 | 2.72 µM | > 100 µM | 436 nM | 12.9 µM | 0.456 µM | 4.24 | 0.434 µM | 7.28 | 1.29 µM | 10.9 | 0.373 µM | 2.48 | 0.651 µM | 7.61 µM | 1.85 µM | 9.74 | 0.317 µM | 2.03
CCc1cccc(CC)c1/C=C/c1cncc(C(=O)NC)c1 | > 21.4 µM | > 25 | 0.765 µM | > 25 µM | 8140 nM | > 20.2 µM | 11.5 µM | > 25 | 13.2 µM | > 25 | 9.71 µM | > 25 | 13.4 µM | > 25 | 11.9 µM | > 25 µM | 14.2 µM | > 25 | 10.9 µM | > 25
CC(=O)Oc1ccc(C2(c3ccc(OC(C)=O)cc3)C(=O)Nc3ccccc32)cc1 | 0.0347 µM and 0.0389 µM | 1.42 | 25.7 µM and 28.6 µM | > 100 µM and 99.3 µM | 81 nM and 131 nM | > 35.8 µM and 26 µM | 16.8 µM and 13.8 µM | > 100 | 25.6 µM and 37.8 µM | > 100 | 20.5 µM and 25.8 µM | > 100 | 35.1 µM and 34.2 µM | > 100 | 0.031 µM and 0.0327 µM | 0.112 µM and 0.129 µM | 8.49 µM and 22.4 µM | > 100 | 64.5 µM and > 100 µM | > 100
O=C(CCN1CCCC1)Nc1ccc2c(Nc3ccccc3)c3ccccc3nc2c1 | 0.468 µM | 2.13 | 0.142 µM | 2.14 µM | 1060 nM | 3.27 µM | 0.398 µM | 1.93 | 1.41 µM | 3.45 | 0.367 µM | 2.36 | 1.6 µM | 3.06 | 0.399 µM | 2.76 µM | 1.41 µM | 4.23 | 1.46 µM | 2.83
CN(C)C/C=C/C(=O)Nc1ccc(C(=O)N2CCC[C@@H](Nc3ncc(Cl)c(-c4c[nH]c5ccccc45)n3)C2)cc1 | 0.0664 µM | 9.74 | 0.0438 µM | 15.8 µM | 64.4 nM | 0.99 µM | 0.0558 µM | 1.28 | 0.138 µM | 6.71 | 8.65 µM | 23.2 | 0.121 µM | 0.942 | 0.0427 µM | 4.27 µM | 0.827 µM | 7.5 | 0.0372 µM | 0.315
